Data reported in paper PMC5089653, “Isoxazole‐Derived Amino Acids are Bromodomain‐Binding Acetyl‐Lysine Mimics: Incorporation into Histone H4 Peptides and Histone H3” (Angewandte Chemie (International Ed. in English), 2016).
Like-named read-outs stand apart in the source and are kept apart here.

Key:
BRD4(1) = target: T1, BRD4(1) (Homo sapiens, UniProt O60885); assay: AlphaScreen assay inhibiting the interaction of BRD4(1) with biotinylated H4(KAc)4; format: binding; conditions: for Percentage inhibition of bromodomain-KAc recognition, BRD4(1), H4(KAc)4 / inhibition at 0.004 µM: AlphaScreen, average of triplicate, BRD4(1) 10 nM, biotin-H4(KAc)4 4 nM
T1 construct: the phylogenetically diverse BAZ2A, BRD4(1), and BRD9 bromodomains; His tag (pNIC28-Bsa4 vector; purified on HisTrap) (N); made in house; host or cells: E. coli BL21 (DE3) Gold
From the text: (§1) Supporting Table S1: Percentage inhibition of bromodomain-KAc recognition by isoxazole-containing amino acids.
(§2) Inhibitory values of unprotected amino acids given as average percentage inhibition (buffer […]
(§3) measurements in triplicate (AlphaScreen). n.d. value not determined. Inhibition values highlighted as a heatmap from green (low inhibition) to red (high inhibition). […]
(§4) Protein expression and purification: bromodomain-containing constructs in pNIC28-Bsa4 vector backbones were transformed into E. coli BL21 (DE3) Gold cells. Flasks containing […]
(§5) starter culture. Flasks (2000 mL PYREX® narrow-mouth graduated Erlenmeyer flasks or plastic baffled flasks) were incubated at 37 °C and 180 rpm in an Innova® 44 shaker (New Brunswick Scientific). When OD600 reached 0.8-1.0, the temperature was lowered to 18 °C and IPTG was added to a final concentration of 0.25 mM to induce protein expression.
(§6) Cultures were incubated at 18 °C overnight, after which time cultures were harvested by centrifugation in a JA10 rotor in an Avanti J25 centrifuge (Beckman CoulterTM) at 8000 rpm for 15 min at 4 °C. The resulting pellet was weighed and stored in a sealable plastic bag at - 80 °C. Proteins were purified with a 3 mL HisTrapTM chromatography column (GE Healthcare), and Superdex 75 XK 16/600 gel filtration column (GE Healthcare) using standard

BRD9 [1] = target: T2, BRD9 (Homo sapiens, UniProt Q9H8M2); assay: AlphaScreen single shot screening, BRD9 with biotin-H2A(KAc)3 peptide; format: binding; conditions: amino acid 50 μM as headed in Table 1 (supplement: 25 µM), average of triplicate, BRD9 40 nM, biotin-H2A 1-21 KAc9KAc13KAc15 25 nM, read-out: Percentage inhibition of bromodomain-KAc recognition, BRD9, H2(KAc)3
T2 construct: the phylogenetically diverse BAZ2A, BRD4(1), and BRD9 bromodomains; Structural Genomics Consortium (Oxford)
T2 sequence (Q9H8M2 136-240 limits assumed): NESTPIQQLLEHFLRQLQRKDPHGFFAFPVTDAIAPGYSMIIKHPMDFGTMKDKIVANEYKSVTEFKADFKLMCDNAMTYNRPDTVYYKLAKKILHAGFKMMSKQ

BAZ2A [2] = target: T3, BAZ2A (Homo sapiens, UniProt Q9UIF9); assay: AlphaScreen single shot screening, BAZ2A with biotin-H3K14Ac peptide; format: binding; conditions: amino acid 50 μM as headed in Table 1 (supplement: 25 µM), average of triplicate, BAZ2A 25 nM, biotin-H3 5-24 KAc14 50 nM, read-out: Percentage inhibition of bromodomain-KAc recognition, BAZ2A, H3K14Ac
T3 construct: the phylogenetically diverse BAZ2A, BRD4(1), and BRD9 bromodomains; Structural Genomics Consortium (Oxford)
T3 sequence (Q9UIF9 1793-1897 limits assumed): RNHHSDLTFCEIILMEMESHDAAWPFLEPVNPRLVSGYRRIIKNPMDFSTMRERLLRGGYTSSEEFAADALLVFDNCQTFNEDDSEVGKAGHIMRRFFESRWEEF

BRD9 [3] = target: T2, BRD9; assay: AlphaScreen single shot screening, BRD9 with biotin-H2A(KAc)3 peptide; format: binding; conditions: average of triplicate, BRD9 40 nM, biotin-H2A 1-21 KAc9KAc13KAc15 25 nM, read-out: Percentage inhibition of bromodomain-KAc recognition, BRD9, H2(KAc)3; for inhibition at 250 µM: amino acid 250 μM, <0.5% DMSO; for inhibition at 25 µM: amino acid 50 μM as headed in Table 1 (supplement: 25 µM)
From the text: as §1, §2, §3, §4, §5
as §6, with “Healthcare), and Superdex 75 XK 16/600 gel filtration column (GE Healthcare) using standard” left out
(§7) AlphaScreen assay: AlphaScreen buffer (25 mM HEPES, 100 mM NaCl, 0.05% w/v CHAPS, 0.1% w/v BSA; pH 7.6) was prepared fresh each day, filter sterilization through a 0.22 µm filter, and stored at 4 °C, with equilibration to room temperature before use. Single shot screening against BAZ2A and BRD9A was carried out by the Structural Genomics Consortium (Oxford) as described previously.[12] Biotinylated peptides employed and final assay […]
(§8) biotin-H35-24KAc14 50 nM. Amino acids were tested at 25 µM and 250 µM with <0.5% DMSO.

BAZ2A [4] = target: T3, BAZ2A; assay: AlphaScreen single shot screening, BAZ2A with biotin-H3K14Ac peptide; format: binding; conditions: average of triplicate, BAZ2A 25 nM, biotin-H3 5-24 KAc14 50 nM, read-out: Percentage inhibition of bromodomain-KAc recognition, BAZ2A, H3K14Ac; for inhibition at 250 µM: amino acid 250 μM, <0.5% DMSO
From the text: as §1, §2, §3, §4, §5
as §6, with “Healthcare), and Superdex 75 XK 16/600 gel filtration column (GE Healthcare) using standard” left out
as §7, §8

bromodomain of BRDT = conditions: KAc mimics containing MTCTK; cited from earlier work
From the text: Lysine acetylation is a prevalent post‐translational modification (PTM) which plays a fundamental role in regulating protein function.1, 2 Although acetylated lysine (KAc) residues are found throughout the cellular environment,3, 4, 5 it is the role of this PTM in chromatin function which has garnered most recent interest.6 KAc is viewed as one of the “marks” that comprises the epigenetic code,7, 8 and enzymes that write (histone acetyl transferases) and erase (histone deacetylases) this modification are well characterized.9 Neutralization of lysine's positive charge by acetylation weakens the ...

[5] = amino acid 250 μM, buffer blank 0%, 25% DMSO 100% inhibition
[6] = read-out: Percentage inhibition of bromodomain-KAc recognition, BRD4(1), H4(KAc)4, amino acid 50 μM
[7] = read-out: Percentage inhibition of bromodomain-KAc recognition, BRD4(1), H4(KAc)4, amino acid 250 μM, buffer blank 0%, 25% DMSO 100% inhibition

Compound | inhibition at 0.004 µM (BRD4(1); [6]) [%] | inhibition at 0.004 µM (BRD4(1); [7]) [%] | inhibition at 250 µM (BRD9 [3]) [%] | inhibition at 250 µM (BAZ2A [4]) [%] | inhibition at 25 µM (BRD9 [3]) [%] | inhibition (BAZ2A [4]) [%] | further results
CC(=O)NCCCC[C@H](N)C(=O)O [KAc, reference compound] | – | – | – | – | – | – | Percentage inhibition of bromodomain-KAc recognition, BRD4(1), H4(KAc)4 (BRD4(1); amino acid 50 μM): 4.6%
Cc1noc(C)c1-c1cc(O)cc(C(O)c2ccccc2)c1 (stereo not drawn) [compound 2, reference compound] | – | – | – | – | – | – | inhibition by positive control (BRD4(1); included on each plate of the amino acid screen as a positive control, in every case, concentration not given): 100%
Cc1cc(CCC[C@H](N)C(=O)O)on1 [compound 3, (S)-2-Amino-5-(3-methylisoxazol-5-yl)pentanoic acid] | – | – | – | – | – | – | Percentage inhibition of bromodomain-KAc recognition, BRD4(1), H4(KAc)4 (BRD4(1); amino acid 50 μM): 2.3%; Percentage inhibition of bromodomain-KAc recognition, BRD4(1), H4(KAc)4 (BRD4(1); [5]): 16.4%
Cc1cc(C(=O)NC[C@H](N)C(=O)O)on1 [compound 5, (S)-2-Amino-3-(3-methylisoxazole-5-carboxamido)propanoic acid] | – | – | 73.6 | 98.7 | – | – | inhibition at 50 µM (BRD9 [1]): 28.6%; inhibition at 50 µM (BAZ2A [2]): 58.1%; Percentage inhibition of bromodomain-KAc recognition, BRD4(1), H4(KAc)4 (BRD4(1); amino acid 50 μM): 2.5%; Percentage inhibition of bromodomain-KAc recognition, BRD4(1), H4(KAc)4 (BRD4(1); [5]): 31.2%
CSC(=O)NCCSC[C@H](N)C(=O)O [compound 7, methylthiocarbonylthialysine] | – | – | – | – | – | – | interaction with the bromodomain of BRDT compared to KAc (bromodomain of BRDT): two‐ to fourfold less efficiently
Cc1noc(C)c1-c1cccc(C[C@H](N)C(=O)O)c1 [compound 8] | 18.3 | > 70 | 0.5 | 45.3 | -7.7 | 5.8 | Percentage inhibition of bromodomain-KAc recognition, BRD4(1), H4(KAc)4 (BRD4(1); [5]): 76.3%
Cc1noc(C)c1-c1ccc(C[C@H](N)C(=O)O)cc1 [compound 9] | 22.7 | 45.8 | 66.5 | 28.1 | -1.7 | 2.6 | –
Cc1noc(C)c1NC(=O)CC[C@H](N)C(=O)O [compound 10, N5-(3,5-Dimethylisoxazol-4-yl)-L-glutamine] | 4.1 | 7.5 | -3.1 | 25.1 | -4.8 | 1.4 | –
Cc1noc(C)c1NC(=O)C[C@H](N)C(=O)O [compound 12] | 1.3 | 23.5 | 12.6 | 66.9 | -2.1 | 10.5 | –
Cc1cc(NC(=O)C[C@H](N)C(=O)O)no1 [compound 13] | 0.9 | 26.3 | 47.9 | 96.1 | -1 | 12.6 | –

Further lines, with some results ahead:

inhibition at 0.004 µM (BRD4(1); [6]) [%] | inhibition at 0.004 µM (BRD4(1); [7]) [%] | inhibition at 250 µM (BRD9 [3]) [%] | inhibition at 250 µM (BAZ2A [4]) [%] | inhibition at 25 µM (BRD9 [3]) [%] | inhibition (BAZ2A [4]) [%] | Compound | further results
0.6 | 10.3 | – | – | – | – | Cc1cc(COC[C@H](N)C(=O)O)on1 [compound 4] | –
4.7 | 18.5 | -0.1 | 53.8 | -8.1 | 1.9 | Cc1cc(CNC(=O)C[C@H](N)C(=O)O)on1 [compound 11] | –
– | – | 14.6 | 84.3 | 1.4 | 14.5 | Cc1cc(NC(=O)C[C@H](N)C(=O)O)on1 [compound 14] | –
